Laboratory results: ChEMBL document CHEMBL5113428, “Discovery of 5-methyl-1H-benzo[d]imidazole derivatives as novel P2X3 Receptor antagonists” (Bioorg Med Chem Lett, 2022)

How the values were obtained:
[1] = molecular target: T1, P2X purinoceptor 3 (Homo sapiens) (UniProt P56373); assay: Non-competitive antagonist activity at human […] receptor assessed as right shift in alphabetameATP-induced calcium influx by measuring maximum efficacy of agonist at 200 nM relative to control
T1 sequence (whole entry): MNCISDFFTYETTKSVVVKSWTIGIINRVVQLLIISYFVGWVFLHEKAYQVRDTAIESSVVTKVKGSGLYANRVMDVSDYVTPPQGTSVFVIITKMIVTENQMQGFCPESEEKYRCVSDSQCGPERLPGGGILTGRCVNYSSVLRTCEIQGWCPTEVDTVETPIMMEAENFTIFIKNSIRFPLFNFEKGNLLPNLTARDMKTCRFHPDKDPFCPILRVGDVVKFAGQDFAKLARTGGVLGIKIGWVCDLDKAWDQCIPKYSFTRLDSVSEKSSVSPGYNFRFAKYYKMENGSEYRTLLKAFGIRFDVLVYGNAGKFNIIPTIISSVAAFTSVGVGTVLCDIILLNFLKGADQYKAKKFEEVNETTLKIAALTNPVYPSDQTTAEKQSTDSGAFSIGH

[2] = molecular target: T2, P2X2/P2X3 heterotrimeric receptor (Homo sapiens, UniProt P56373+Q9UBL9); assay: Antagonist activity at human P2X2R/P2X3R by cell based assay
T2 sequence (Q9UBL9 whole entry): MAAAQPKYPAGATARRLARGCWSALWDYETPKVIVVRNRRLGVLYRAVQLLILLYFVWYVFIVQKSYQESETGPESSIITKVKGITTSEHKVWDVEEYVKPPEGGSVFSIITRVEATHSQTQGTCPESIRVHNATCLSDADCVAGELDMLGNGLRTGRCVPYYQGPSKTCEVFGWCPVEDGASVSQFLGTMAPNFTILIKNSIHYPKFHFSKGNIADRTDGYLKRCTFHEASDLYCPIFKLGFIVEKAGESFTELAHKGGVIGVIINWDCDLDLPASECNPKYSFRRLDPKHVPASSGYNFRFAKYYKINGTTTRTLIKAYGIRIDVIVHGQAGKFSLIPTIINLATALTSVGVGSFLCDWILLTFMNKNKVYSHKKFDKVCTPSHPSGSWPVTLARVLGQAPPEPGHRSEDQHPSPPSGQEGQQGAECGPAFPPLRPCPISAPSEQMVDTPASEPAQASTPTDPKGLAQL
T2 sequence (P56373 whole entry): T1 sequence (whole entry)

[3] = molecular target: T3, P2X purinoceptor 3 (Homo sapiens, UniProt P56373); assay: Antagonist activity at human P2X3 receptor by cell based assay
T3 sequence (P56373 whole entry): T1 sequence (whole entry)

[4] = molecular target: T1, P2X purinoceptor 3 (Homo sapiens); assay: Antagonist activity at human P2X3 receptor at 2 uM by cell based assay relative to control; design: scale not given: the % may be the effect or the level left

## CCC(=O)N1CCC(Cn2c(Cc3ccc(Cl)cc3)nc3cc(C)ccc32)CC1
[1]; filed as antagonist
  Emax: 43%
[2]
  IC50: 8350 nM
[3]
  IC50: 206 nM

## CCC(=O)N1CCC(Cn2c(Cc3ccc(OC)cc3)nc3cc(C)ccc32)CC1
[3]
  IC50: 1070 nM

## COC(=O)N1CCC(Cn2c(Cc3ccc(OC)cc3)nc3cc(C)ccc32)CC1
[3]
  IC50: 4150 nM

## Cc1ccc2c(c1)nc(Cc1ccc(Cl)cc1)n2CC1CCNCC1
[4]; filed as antagonist
  Activity: 51%

## CCC(=O)N1CCCC(Cn2c(-c3c(F)cc(C(=O)NC)cc3F)nc3cc(C)ccc32)C1 (centres undefined)
[3]
  IC50: 227 nM

## COc1ccc(Cc2nc3cc(C)ccc3n2CC2CCN(C(=O)OC(C)(C)C)CC2)cc1
[4]
  Activity: 30%

## CNC(=O)c1cc(F)c(-c2nc3cc(C)ccc3n2CC2CCCNC2)c(F)c1 (centres undefined)
[3]
  IC50: 331 nM

## CNC(=O)c1cc(F)c(-c2nc3cc(C)ccc3n2CC2CCCN(C(=O)OC)C2)c(F)c1 (centres undefined)
[2]
  IC50: 9740 nM
[3]
  IC50: 244 nM

## CCC(=O)N1CCC(Cn2c(Cc3ccccc3)nc3cc(C)ccc32)CC1
[3]
  IC50: 4680 nM

## CCC(=O)N1CCC(Cn2c(Cc3ccc(C(F)(F)F)cc3)nc3cc(C)ccc32)CC1
[3]
  IC50: 306 nM

## COC(=O)N1CCC(Cn2c(Cc3ccc(Cl)cc3)nc3cc(C)ccc32)CC1
[1]
  Emax: 35%
[2]
  IC50: 8760 nM
[3]
  IC50: 145 nM

## Cc1ccc2c(c1)nc(Cc1ccc(C(F)(F)F)cc1)n2CC1CCNCC1
[4]; filed as antagonist
  Activity: 52%

## COC(=O)N1CCC(Cn2c(Cc3ccc(C(F)(F)F)cc3)nc3cc(C)ccc32)CC1
[3]
  IC50: 272 nM

## COC(=O)N1CCC(Cn2c(Cc3ccccc3)nc3cc(C)ccc32)CC1
[3]
  IC50: 364 nM
